Test results from ChEMBL document CHEMBL5543168, “Discovery of Urea Derivatives of Celastrol as Selective Peroxiredoxin 1 Inhibitors against Colorectal Cancer Cells” (J Med Chem, 2024).
Activity calls are given as the source filed them. No cut-off for these calls is given here.

Assays:
[1] = Toxicity in BALB/c nude mouse xenografted with human SW620 cells assessed as body weight loss at 2 mg/kg, ip qd for 16 days; assay type: organism-based, SW-620; details: in vivo, 384 h, time 16 day
[2] = Antiproliferative activity against human LX2 cells; assay type: toxicity, cell-based, LX-2
[3] = tested on: SW-620; test: Induction of cell cycle arrest at G1 phase in human SW620 cells at 0.5 uM incubated for 24 hrs by PI staining based flow cytometry (reference value: 32.4 %); assay type: functional
[4] = Acute toxicity in C57BL/[…] 6J mouse assessed as pathological change in kidney at 20 mg/kg, ip measured for 2 weeks by H and E staining based analysis; assay type: organism-based; details: in vivo, 336 h
[5] = tested on: SW-620; test: Induction of cell cycle arrest at G1 phase in human SW620 cells at 2 uM incubated for 24 hrs by PI staining based flow cytometry (reference value: 32.4 %); assay type: functional
[6] = tested on: SW-620; test: Induction of cell cycle arrest at G2 phase in human SW620 cells at 1 uM incubated for 24 hrs by PI staining based flow cytometry (reference value: 6.77 %); assay type: functional
[7] = biological target: T1, Peroxiredoxin-1 (Homo sapiens, UniProt Q06830); test: Binding affinity to CM5 sensor chip-immobilized recombinant PRDX1 (unknown origin) assessed as dissociation constant by SPR analysis
T1 sequence (Q06830 whole entry): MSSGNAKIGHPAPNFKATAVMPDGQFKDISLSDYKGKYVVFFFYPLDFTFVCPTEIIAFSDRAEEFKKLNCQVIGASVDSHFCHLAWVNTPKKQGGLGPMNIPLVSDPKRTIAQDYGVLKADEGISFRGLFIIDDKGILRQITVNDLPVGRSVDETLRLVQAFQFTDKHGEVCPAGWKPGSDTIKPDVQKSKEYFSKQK

[8] = tested on: SW-620; test: Induction of mitochondrial membrane potential depolarization in human SW620 cells assessed as JC-1-stained green cells upto 2 uM incubated for 48 hrs by flow cytometry (reference value: 8.9 %); assay type: functional; details: up to 2 µM
[9] = tested on: SW-620; test: Induction of mitochondrial membrane potential depolarization in human SW620 cells assessed as JC-1-stained red cells upto 2 uM incubated for 48 hrs by flow cytometry (reference value: 89.8 %); assay type: functional; details: up to 2 µM
[10] = Acute toxicity in C57BL/[…] 6J mouse assessed as pathological change in liver at 20 mg/kg, ip measured for 2 weeks by H and E staining based analysis; assay type: organism-based; details: in vivo, 336 h
[11] = tested on: SW-620; test: cells; details: Homo sapiens, SW-620, 48 h, read-out: Activity
Description: Induction of apoptosis in human SW620 cells assessed as viable cells at 1 uM incubated for 48 hrs by Annexin V-FITC/PI staining based flow cytometry (Rvb = 90.7 %)

[12] = tested on: HCT-116; test: Inhibition of cell viability in human HCT-116 cells incubated for 72 hrs by Cell Titer Glo assay; assay type: functional, cell-based; details: HCT-116, 72 h
[13] = Selectivity ratio of IC50 for human LX2 cells to IC50 for human SW620 cells; assay type: functional
[14] = biological target: T1, Peroxiredoxin-1; test: Inhibition of recombinant PRDX1 (unknown origin) using H2O2 as substrate preincubated for 0.5 hrs followed by substrate addition by TRX-TrxR-NADPH coupling assay
[15] = Selectivity ratio of IC50 for mouse […] cells to IC50 for human SW620 cells; assay type: functional
[16] = tested on: SW-620; test: Antitumor activity against human SW620 cells xenografted in BALB/c nude mouse assessed as morphological change in vacuoles in tumor cells at 2 mg/kg, ip qd for 16 days by H and E staining based analysis; assay type: functional, organism-based; details: time 16.0 day
[17] = Selectivity ratio of IC50 for mouse […] cells to IC50 for human HCT-116 cells; assay type: functional
[18] = AUC (0 to t) in mouse at 2 mg/kg, iv measured for 24 hrs by LC-MS/MS analysis; assay type: ADME, organism-based; details: in vivo
[19] = tested on: SW-620; test: Induction of mitochondrial membrane potential depolarization in human SW620 cells assessed as increase in JC-1-stained green cells at 0.5 to 2 uM incubated for 48 hrs by flow cytometry; assay type: functional, cell-based; details: dose 0.5-2 µM
[20] = tested on: SW-620; test: Induction of cell cycle arrest at G2 phase in human SW620 cells at 2 uM incubated for 24 hrs by PI staining based flow cytometry (reference value: 6.77 %); assay type: functional
[21] = tested on: SW-620; test: Induction of mitochondrial membrane potential depolarization in human SW620 cells assessed as increase in green fluorescence incubated for 48 hrs by JC1-staining based CLSM analysis; assay type: functional, cell-based; details: dose 0.5-2 µM
[22] = Selectivity ratio of IC50 for human LX2 cells to IC50 for human HCT-116 cells; assay type: functional
[23] = tested on: SW-620; test: Induction of cell cycle arrest at G2/M phase in human SW620 cells at 0.5 to 2 uM incubated for 48 hrs by PI staining based flow cytometry relative to control; assay type: functional; details: dose 0.5-2 µM
[24] = tested on: SW-620; test: Antitumor activity against human SW620 cells xenografted in BALB/c nude mouse assessed as decrease in tumor weight at 2 mg/kg, ip qd for 16 days; assay type: functional, organism-based; details: time 16.0 day
[25] = Acute toxicity in C57BL/[…] 6J mouse assessed as body weight loss at 20 mg/kg, ip measured for 2 weeks; assay type: organism-based; details: in vivo, 336 h
[26] = tested on: SW-620; test: cells; details: Homo sapiens, SW-620, 48 h, read-out: Activity; remark: listed apart in the source
Description: Induction of apoptosis in human SW620 cells assessed as viable cells at 0.5 uM incubated for 48 hrs by Annexin V-FITC/PI staining based flow cytometry (Rvb = 90.7 %)

[27] = Volume of distribution in mouse at 2 mg/kg, iv measured for 24 hrs by LC-MS/MS analysis; assay type: ADME, organism-based; details: in vivo
[28] = tested on: SW-620; test: Induction of cell cycle arrest at S phase in human SW620 cells at 0.5 uM incubated for 24 hrs by PI staining based flow cytometry (reference value: 59.9 %); assay type: functional
[29] = tested on: SW-620; test: Induction of mitochondrial membrane potential depolarization in human SW620 cells assessed as change in morphological characteristics at 0.5 to 2 uM incubated for 48 hrs by bright-field microscopy; assay type: functional, cell-based; details: dose 0.5-2 µM
[30] = tested on: SW-620; test: Induction of cell cycle arrest at G1 phase in human SW620 cells at 1 uM incubated for 24 hrs by PI staining based flow cytometry (reference value: 32.4 %); assay type: functional
[31] = tested on: SW-620; test: cells; details: Homo sapiens, SW-620, 48 h, read-out: Activity; remark: listed apart in the source
Description: Induction of apoptosis in human SW620 cells assessed as viable cells at 2 uM incubated for 48 hrs by Annexin V-FITC/PI staining based flow cytometry (Rvb = 90.7 %)

[32] = tested on: SW-620; test: Induction of DNA damage in human SW620 cells assessed as increase in gamma-H2AX level incubated for 48 hrs by Western blot analysis; assay type: functional, cell-based; details: dose 0.25-2 µM
[33] = tested on: SW-620; test: Induction of apoptosis in human SW620 cells assessed as decrease in Bcl-2 level incubated for 48 hrs by Western blot analysis; assay type: functional, cell-based; details: dose 0.25-2 µM
[34] = biological target: T2, Peroxiredoxin-6 (Homo sapiens, UniProt P30041); test: Inhibition of recombinant PRDX6 (unknown origin) using H2O2 as substrate preincubated for 0.5 hrs followed by substrate addition by TRX-TrxR-NADPH coupling assay
T2 sequence (P30041 whole entry): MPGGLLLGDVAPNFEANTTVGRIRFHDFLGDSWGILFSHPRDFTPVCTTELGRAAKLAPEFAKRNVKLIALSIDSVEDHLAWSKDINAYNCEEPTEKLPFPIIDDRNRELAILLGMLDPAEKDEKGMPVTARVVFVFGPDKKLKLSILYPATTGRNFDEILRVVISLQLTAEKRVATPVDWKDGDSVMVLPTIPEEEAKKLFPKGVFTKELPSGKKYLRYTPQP

[35] = tested on: SW-620; test: Antitumor activity against human SW620 cells xenografted in BALB/c nude mouse assessed as nuclear pyknosis in tumor cells at 2 mg/kg, ip qd for 16 days by H and E staining based analysis; assay type: functional, organism-based; details: time 16.0 day
[36] = Cmax in mouse at 2 mg/kg, iv measured for 24 hrs by LC-MS/MS analysis; assay type: ADME, organism-based; details: in vivo

With COC(=O)C1(NC(=O)N[C@]2(C)CC[C@]3(C)CC[C@]4(C)C5=CC=C6C(=CC(=O)C(O)=C6C)[C@]5(C)CC[C@@]4(C)[C@@H]3C2)CCC1 the Activity [1] was “Non-Toxic”, the IC50 [2] was roughly 1000 nM and the Activity [3] was 33.5%. The Activity [4] was “Non-Toxic”, the Activity [5] was 29.2% and the Activity [6] was 14.6%. For the same molecule, the Kd [7] was 370 nM, the Activity [8] was 54.6% and the Activity [9] was 39.2%. For the same molecule, the Activity [10] was “Non-Toxic”, the viability at 1 µM [11] was 78.8% and the IC50 [12] was 440 nM. For the same molecule, the Selectivity ratio [13] was 2, the IC50 [14] was 350 nM and the Selectivity ratio [15] was 2. The Activity [16] was “Active”, the Selectivity ratio [17] was 2 and the AUC(0-t) at 24 h [18] was 364 ng·h/mL. The Activity [19] was “Active”, the Activity [20] was 17.4% and the Activity [21] was “Dose-Dependent Effect”. For the same molecule, the Selectivity ratio [22] was 2, the Activity [23] was 7.1% and the Activity [24] was “Active”. For the same molecule, the Activity [25] was “Non-Toxic”, the viability at 0.5 µM [26] was 88.5% and the Vd [27] was 60.7 L/kg. The Activity [28] was 57.3%, the Activity [29] was “Active” and the Activity [30] was 39.7%. For the same molecule, the viability at 2 µM [31] was 41.5%, the Activity [32] was “Dose-Dependent Effect” and the Activity [33] was “Dose-Dependent Effect”. For the same molecule, the IC50 [34] was greater than 50000 nM, the Activity [35] was “Active” and the Cmax [36] was 203 ng/mL.
